ChEMBL document CHEMBL5550212, “Structural and Physicochemical Features of Oral PROTACs” (J Med Chem, 2024)

Tests used:
[1] = Drug uptake in mouse plasma at 60 mg/kg, po; format: ADME, organism-based; details: in vivo
[2] = Clearance in C57BL/6 mouse at 1 mg/kg, po measured upto 24 hrs by LC-MS/MS analysis; format: ADME, organism-based; details: in vivo
[3] = target: T1, Estrogen receptor (Homo sapiens, UniProt P03372); experiment: Induction of ERalpha degradation in human MCF7 cells; format: cell-based
T1 sequence (P03372 whole entry): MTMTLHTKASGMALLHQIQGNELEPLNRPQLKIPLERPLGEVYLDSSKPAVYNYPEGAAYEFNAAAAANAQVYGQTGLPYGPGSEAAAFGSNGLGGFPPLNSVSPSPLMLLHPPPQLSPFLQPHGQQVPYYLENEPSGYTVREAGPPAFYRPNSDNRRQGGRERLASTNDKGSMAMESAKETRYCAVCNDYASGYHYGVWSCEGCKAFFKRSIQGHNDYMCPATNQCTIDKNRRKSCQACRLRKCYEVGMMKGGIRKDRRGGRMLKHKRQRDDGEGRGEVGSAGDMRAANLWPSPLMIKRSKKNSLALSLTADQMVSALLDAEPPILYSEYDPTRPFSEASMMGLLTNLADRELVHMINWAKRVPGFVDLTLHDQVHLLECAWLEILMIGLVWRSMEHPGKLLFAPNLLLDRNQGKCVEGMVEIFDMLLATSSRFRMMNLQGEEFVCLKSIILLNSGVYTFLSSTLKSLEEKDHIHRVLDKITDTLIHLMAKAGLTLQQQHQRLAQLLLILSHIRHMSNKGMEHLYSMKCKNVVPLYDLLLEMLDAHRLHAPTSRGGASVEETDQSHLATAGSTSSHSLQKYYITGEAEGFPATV

[4] = Chromatographic hydrophobicity index, logD of the compound; format: physicochemical
[5] = Oral bioavailability in C57BL/6 mouse at 1 mg/kg measured upto 24 hrs by LC-MS/MS analysis; format: ADME, organism-based; details: in vivo
[6] = target: T2, Estrogen receptor (Homo sapiens) (UniProt P03372); experiment: Induction of ERalpha degradation in human MCF7 cells relative to control; format: cell-based
T2 sequence (whole entry): T1 sequence (P03372 whole entry)

[7] = Volume of distribution at steady state in Han Wistar rat at 1 mg/kg, po measured upto 24 hrs by LC-MS/MS analysis; format: ADME, organism-based; details: in vivo
[8] = Clearance in Han Wistar rat at 1 mg/kg, po measured upto 24 hrs by LC-MS/MS analysis; format: ADME, organism-based; details: in vivo
[9] = Half-life in Han Wistar rat at 1 mg/kg, po measured upto 24 hrs by LC-MS/MS analysis; format: ADME, organism-based; details: in vivo
[10] = Half-life in C57BL/6 mouse at 1 mg/kg, po measured upto 24 hrs by LC-MS/MS analysis; format: ADME, organism-based; details: in vivo
[11] = Lipophilicity, logD of the compound at pH 7.4 by shake-flask assay; format: physicochemical; details: buffer
[12] = Clearance in Beagle dog at 1 mg/kg, po measured upto 24 hrs by LC-MS/MS analysis; format: ADME, organism-based, Canis lupus familiaris; details: in vivo
[13] = Oral bioavailability in Han Wistar rat at 1 mg/kg measured upto 24 hrs by LC-MS/MS analysis; format: ADME, organism-based; details: in vivo
[14] = Half-life in Beagle dog at 1 mg/kg, po measured upto 24 hrs by LC-MS/MS analysis; format: ADME, organism-based, Canis lupus familiaris; details: in vivo
[15] = Oral bioavailability in Beagle dog at 1 mg/kg measured upto 24 hrs by LC-MS/MS analysis; format: ADME, organism-based, Canis lupus familiaris; details: in vivo
[16] = Volume of distribution at steady state in Beagle dog at 1 mg/kg, po measured upto 24 hrs by LC-MS/MS analysis; format: ADME, organism-based, Canis lupus familiaris; details: in vivo
[17] = Volume of distribution at steady state in C57BL/6 mouse at 1 mg/kg, po measured upto 24 hrs by LC-MS/MS analysis; format: ADME, organism-based; details: in vivo
[18] = target: T3, Androgen receptor (Homo sapiens) (UniProt P10275); experiment: Induction of AR degradation in human LNCaP cells relative to control; format: cell-based
T3 sequence (whole entry): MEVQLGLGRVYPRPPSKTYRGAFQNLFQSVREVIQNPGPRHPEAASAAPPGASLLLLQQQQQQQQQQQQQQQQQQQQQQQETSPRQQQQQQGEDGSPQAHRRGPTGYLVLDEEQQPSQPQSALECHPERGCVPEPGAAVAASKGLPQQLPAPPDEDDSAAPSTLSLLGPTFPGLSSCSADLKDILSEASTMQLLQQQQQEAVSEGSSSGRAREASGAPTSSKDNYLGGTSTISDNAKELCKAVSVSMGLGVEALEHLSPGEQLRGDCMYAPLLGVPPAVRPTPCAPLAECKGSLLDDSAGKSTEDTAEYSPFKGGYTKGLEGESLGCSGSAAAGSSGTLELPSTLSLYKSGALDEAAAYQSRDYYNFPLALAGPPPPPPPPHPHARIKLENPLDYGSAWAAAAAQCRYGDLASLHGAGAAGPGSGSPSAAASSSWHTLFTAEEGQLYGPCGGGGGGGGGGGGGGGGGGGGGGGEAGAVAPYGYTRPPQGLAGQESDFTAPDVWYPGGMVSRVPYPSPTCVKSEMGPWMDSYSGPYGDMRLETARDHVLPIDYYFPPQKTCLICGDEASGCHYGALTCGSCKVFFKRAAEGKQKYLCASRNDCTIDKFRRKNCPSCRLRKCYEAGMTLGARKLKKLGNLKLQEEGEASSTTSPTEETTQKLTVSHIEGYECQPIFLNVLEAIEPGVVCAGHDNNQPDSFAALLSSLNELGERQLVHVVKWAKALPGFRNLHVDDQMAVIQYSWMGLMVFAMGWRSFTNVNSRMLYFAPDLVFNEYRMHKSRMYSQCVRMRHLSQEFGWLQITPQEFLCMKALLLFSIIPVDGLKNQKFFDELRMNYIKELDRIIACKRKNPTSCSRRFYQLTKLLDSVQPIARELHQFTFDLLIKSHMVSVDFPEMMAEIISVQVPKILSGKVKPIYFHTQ

[19] = target: T4, Androgen receptor (Homo sapiens, UniProt P10275); experiment: Induction of AR degradation in human LNCaP cells; format: cell-based
T4 sequence (P10275 whole entry): T3 sequence (whole entry)

[20] = Dissociation constant, pKa of the compound; format: physicochemical
[21] = target: T3, Androgen receptor (Homo sapiens); experiment: Induction of AR degradation in human VCaP cells relative to control; format: cell-based
[22] = target: T4, Androgen receptor; experiment: Induction of AR degradation in human VCaP cells; format: cell-based
[23] = Drug uptake in mouse plasma at 30 mg/kg, po; format: ADME, organism-based; details: in vivo

Cc1ncsc1-c1ccc(CNC(=O)[C@@H]2C[C@@H](O)CN2C(=O)[C@@H](NC(=O)CCCCCCCCCCNC(=O)O[C@H]2C[C@@H](C)C=C3C=C[C@H](C)[C@H](CC[C@@H]4C[C@@H](O)CC(=O)O4)[C@H]32)C(C)(C)C)cc1
Drug uptake [1]: Active

C[C@@H]1Cc2c([nH]c3ccccc23)[C@@H](c2cnc(N3CCC(CN4CCN(c5ccc6c(c5)CN(C5CCC(=O)NC5=O)C6=O)CC4)CC3)nc2)N1CC(C)(C)F (stereo not given in full)
CL/F [2]: 6.1 mL/min/kg | IC50 [3]: ≤ 1 nM | CHI [4]: 6.1 | bioavailability [5]: 45% | Emax [6]: > 90%

C[C@@H]1Cc2c(n(C)c3ccccc23)[C@@H](c2cnc(N3CCC(CCN4CCN(c5ccc6c(c5)CN(C5CCC(=O)NC5=O)C6=O)CC4)CC3)nc2)N1CC(C)(C)F (mixture of isomers)
CL/F [2]: 5.3 mL/min/kg | CHI [4]: 7 | bioavailability [5]: 38%

C[C@@H]1Cc2c([nH]c3ccccc23)[C@@H](c2cnc(N3CCC(CNC4CCN(c5ccc6c(c5)CN(C5CCC(=O)NC5=O)C6=O)CC4)CC3)nc2)N1CC(C)(C)F (stereo not given in full)
CL/F [2]: 26.6 mL/min/kg | IC50 [3]: ≤ 1 nM | CHI [4]: 4.7 | bioavailability [5]: < 1% | Emax [6]: > 90%

N#Cc1ccc(O[C@H]2CC[C@H](NC(=O)c3ccc(N4CCC(CN5CCN(c6cc7c(cc6F)C(=O)N(C6CCC(=O)NC6=O)C7=O)CC5)CC4)nn3)CC2)cc1Cl (stereo not given in full) [BAVDEGALUTAMIDE]
Vdss [7]: 7.8 L/kg | CL/F [2]: 3.9 mL/min/kg | CL/F [8]: 9 mL/min/kg | half-life [9]: 9.3 h | half-life [10]: 13 h | CHI [4]: 5.1 | logD [11]: 4.8 | CL/F [12]: 4.7 mL/min/kg | bioavailability [5]: 65% | bioavailability [13]: 51% | half-life [14]: 32 h | bioavailability [15]: 14% | Vdss [16]: 13 L/kg | Vdss [17]: 3.8 L/kg

Cc1ncsc1-c1ccc([C@H](C)NC(=O)[C@@H]2C[C@@H](O)CN2C(=O)[C@@H](NC(=O)COCCCCCNc2ccc(C(=O)N[C@H]3C(C)(C)[C@H](Oc4ccc(C#N)c(Cl)c4)C3(C)C)cc2)C(C)(C)C)cc1
CL/F [2]: 4.7 mL/min/kg | Emax [18]: 96% | CHI [4]: 5.9 | bioavailability [5]: 2% | DC50 [19]: 6 nM

Cn1c(=O)n(C2CCC(=O)NC2=O)c2cccc(C#CCOC3CCN(C[C@H]4CC[C@H](n5cc(NC(=O)c6cnn7ccc(N8C[C@H]9C[C@@H]8CO9)nc67)c(C(F)F)n5)CC4)CC3)c21 (stereo not given in full) [KT-474]
Vdss [7]: 7.7 L/kg | CL/F [2]: 17 mL/min/kg | CL/F [8]: 51 mL/min/kg | CHI [4]: 2.3 | logD [11]: 3.6 | CL/F [12]: 16 mL/min/kg | bioavailability [5]: 24% | bioavailability [13]: 7% | pKa [20]: 8.5 | bioavailability [15]: 51% | Vdss [16]: 6.7 L/kg | Vdss [17]: 2.7 L/kg

C[C@@H]1Cc2c([nH]c3ccccc23)[C@@H](c2cnc(N3CCC(CN(C)C4CCN(c5ccc6c(c5)CN(C5CCC(=O)NC5=O)C6=O)CC4)CC3)nc2)N1CC(C)(C)F (stereo not given in full)
CL/F [2]: 19.3 mL/min/kg | IC50 [3]: ≤ 1 nM | CHI [4]: 5.6 | bioavailability [5]: 12% | Emax [6]: > 90%

COc1cc(O[C@H]2C(C)(C)[C@H](NC(=O)c3ccc(N4CCC(CN5CCN(c6ccc(C(=O)N[C@H]7CCC(=O)NC7=O)c(F)c6)CC5)CC4)cc3)C2(C)C)ccc1C#N [LUXDEGALUTAMIDE]
Vdss [7]: 9.1 L/kg | CL/F [2]: 4.2 mL/min/kg | CL/F [8]: 16 mL/min/kg | half-life [9]: 7.4 h | half-life [10]: 6.8 h | CHI [4]: 5 | logD [11]: 4.7 | CL/F [12]: 6.4 mL/min/kg | bioavailability [5]: 58% | bioavailability [13]: 38% | half-life [14]: 31 h | Emax [21]: > 70% | bioavailability [15]: 33% | Vdss [16]: 15 L/kg | Vdss [17]: 2.3 L/kg | DC50 [22]: < 1 nM

C[C@@H]1Cc2c([nH]c3ccccc23)[C@@H](c2cnc(N3CCC(NC4CCN(c5ccc6c(c5)CN(C5CCC(=O)NC5=O)C6=O)CC4)CC3)nc2)N1CC(C)(C)F (stereo not given in full)
CL/F [2]: 51.4 mL/min/kg | IC50 [3]: ≤ 1 nM | CHI [4]: 4.6 | bioavailability [5]: < 1% | Emax [6]: > 90%

C[C@@H]1Cc2c([nH]c3ccccc23)[C@@H](c2cnc(N3CCC(CCN4CCN(c5ccc6c(c5)CN(C5CCC(=O)NC5=O)C6=O)CC4)CC3)nc2)N1CC(C)(C)F (stereo not given in full)
CL/F [2]: 5 mL/min/kg | IC50 [3]: ≤ 1 nM | CHI [4]: 6.1 | bioavailability [5]: 15% | Emax [6]: > 90%

O=C1CC[C@H](N2Cc3cc(N4CCN(CC5CCN(c6ccc([C@@H]7c8ccc(O)cc8CC[C@@H]7c7ccccc7)cc6)CC5)CC4)ccc3C2=O)C(=O)N1 [VEPDEGESTRANT]
CL/F [2]: 35 mL/min/kg | CL/F [8]: 28 mL/min/kg | half-life [9]: 15 h | half-life [10]: 6.2 h | CHI [4]: 5.3 | logD [11]: 4.6 | CL/F [12]: 3 mL/min/kg | bioavailability [5]: 59% | bioavailability [13]: 24% | half-life [14]: 11 h | bioavailability [15]: 5%

Cc1ncsc1-c1ccc([C@H](CC[C@H](C)CCN2CCC(c3ccc4c(c3)n3c5cccc(Br)c5c(=O)nc3n4C3CCCC3)CC2)NC(=O)[C@@H]2C[C@@H](O)CN2C(=O)[C@@H](NC(=O)C2(F)CC2)C(C)(C)C)cc1
Drug uptake [23]: Active

COc1cc(O[C@H]2C(C)(C)[C@H](NC(=O)c3ccc(N4CCC(CN5CCN(c6ccc(C(=O)N[C@@H]7CCC(=O)NC7=O)c(F)c6)CC5)CC4)cc3)C2(C)C)ccc1C#N
Emax [21]: < 50% | DC50 [22]: 1 nM
